From patent US6039963A, “Ceramide compounds, process for their preparation and use” (L'Oreal, priority 1995, dated 2000) come the findings set out here.

Each structure is given as a SMILES string.

Experiment [1] can be described thus: imperceptible water loss (IWL), evaporimeter (Servomed) on delipidized stratum corneum. An excerpt: This measurement is made using an evaporimeter (Servomed) which quantitatively determines water evaporation, that is to say diffusional water transport, from a sample of previously delipidized stratum corneum which forms a stopper in a cylindrical capsule containing water, the entire assembly being placed in a chamber at controlled temperature and relative humidity.
Sensors allow the partial vapor pressure of water to be measured at two points located at different distances from the sample.
The partial vapor pressure of water is thus determined between the two points, and thus the rate of evaporation in accordance with Fick's law.
A comparative test was performed of the effects on the IWL of a solution containing the compound of Example 2 or 4 in tetrahydrofuran (THF) relative to a solution containing, in place of the compound according to the invention, either the pure isomer (D-ribo form) corresponding to the compound of Example 4 (compound A), or the compound of Example 1 of the European patent application published under the No. 0,500,437 filed by the Applicant (compound B).

Experiment [2] can be described thus: coefficient of friction of the hair (smoothness), bleached hair, 1% in THF. The conditions noted are these: for coefficient of friction of the hair, R → T: root to tip; for coefficient of friction of the hair, T → R: tip to root. Here is the method:
(§1) A comparative test was performed on the effects on the smoothness of the hair of a solution containing 1% of the compound of Example 4 in tetrahydrofuran (THF), relative to a control consisting of THF, or to a solution containing, in place of the compound according to the invention, either the pure isomer (D-ribo form) corresponding to the compound of Example 4 (compound A) or the compound of Example 1 of the European patent application published under the No. 0,500,437 owned by the present assignee (compound B).
(§2) This test determines the coefficient of friction of the hair by measuring the force to apply to a control mass in order to make it slide at constant speed on two hairs stretched out in parallel. The measurement is made by sliding the mass from the root to the tip of the hairs (R→T) and vice versa (T→R).

A short description of experiment [3]: coefficient of friction of the hair (smoothness), neutral hair, 1% in THF. The conditions noted are these: for coefficient of friction of the hair, R → T / coefficient of friction of the hair, T → R: neutral hair, 1% in THF; for coefficient of friction of the hair, R → T: root to tip; for coefficient of friction of the hair, T → R: tip to root. Here is the method:
as §1, §2

`CCCCCCCCCCCCCCC(O)C(=O)NC(CO)C(O)C(O)CCCCCCCCCCCCCC` (racemic) [Example 2, 2-N-hydroxyhexadecanoylaminooctadecane-1,3,4-triol(4 isomers)]: in experiment [1] (2% in THF), the “I.W.L. 20 H (%)” value is -31 ± 2%.

Regarding `CCCCCCCCCCCCCCCC(=O)N[C@@H](CO)[C@H](O)[C@H](O)CCCCCCCCCCCCCC` [Compound A, reference compound], in experiment [1] (1% in THF), the “I.W.L. 20 H (%)” value is reported as 0 ± 2%. Also, the “coefficient of friction of the hair, R → T” value in experiment [2] (non-rinsed) was 0.000; in experiment [2] (rinsed), 0.191 ± 0.004; in experiment [3] (non-rinsed), 0.000; in experiment [3] (rinsed), 0.125 ± 0.004. In addition, the “coefficient of friction of the hair, T → R” value came out at 0.000 in experiment [2] (non-rinsed), 0.264 ± 0.012 in experiment [2] (rinsed), 0.000 in experiment [3] (non-rinsed) and 0.214 ± 0.004 in experiment [3] (rinsed).

Regarding `CCCCCCCCCCCCCCCC(=O)NC(CO)C(O)C(O)CCCCCCCCCCCCCC` (stereo not drawn) [Example 4, 2-N-hexadecanoylaminooctadecane-1,3,4-triol (8 isomers)], the “I.W.L. 20 H (%)” value is given as -9 ± 2% in experiment [1] (1% in THF) and -15 ± 2% in experiment [1] (1.5% in THF). The “coefficient of friction of the hair, R → T” value in experiment [2] (non-rinsed) stood at 0.009 ± 0.006; in experiment [2] (rinsed) it was 0.085 ± 0.002; in experiment [3] (non-rinsed), 0.089 ± 0.003; in experiment [3] (rinsed), 0.095 ± 0.004. For the same compound, the “coefficient of friction of the hair, T → R” value in experiment [2] (non-rinsed) is 0.147 ± 0.006; in experiment [2] (rinsed), 0.155 ± 0.004; in experiment [3] (non-rinsed), 0.143 ± 0.003; in experiment [3] (rinsed), 0.147 ± 0.004. Moreover, the “coefficient of friction (result in words)” value in experiment [3] (summary of Table 1, neutral and bleached hair) is given as “marked decrease in the coefficient of friction”.
